Experimental data: US10004701B2, “Methods and compositions for treating infection” (UNIVERSITY OF ROCHESTER, priority 2012, dated 2018)
Where a name gives a salt, the structure may show the parent alone. Read-outs that look alike come from different tables or passages of the source.

How the values were obtained:
Assay in all cases: AK assay 384-well format, Prestwick library screening
E. cloacae = type: cell-based, Enterobacter cloacae; conditions: 50 μM final drug concentration; for fold induction at 50 µM: Enterobacter cloacae, 3 h
E. faecium = type: cell-based, Enterococcus faecium; conditions: 50 μM final drug concentration; for fold induction at 50 µM: Enterococcus faecium, 3 h
[1] = system: A. baumannii strain 98-37-09; type: cell-based, Acinetobacter baumannii; conditions: 50 μM final drug concentration; for fold induction at 50 µM: Acinetobacter baumannii, 983709, 3 h
P. aeruginosa = type: cell-based, Pseudomonas aeruginosa; conditions: 50 μM final drug concentration; for fold induction at 50 µM: Pseudomonas aeruginosa, 3 h
E. coli = type: cell-based, Escherichia coli; conditions: 50 μM final drug concentration; for fold induction at 50 µM: Escherichia coli, 3 h
K. pneumoniae = type: cell-based, Klebsiella pneumoniae; conditions: 50 μM final drug concentration; for fold induction at 50 µM: Klebsiella pneumoniae, 3 h
[2] = system: S. aureus strain USA300-0114; type: cell-based, Staphylococcus aureus; conditions: 50 μM final drug concentration; for fold induction at 50 µM: Staphylococcus aureus, USA300, 3 h
[3] = planktonic E. cloacae, 384-well, cutoff for positive-scoring molecules 3-fold increase, read-out: AK-based Prestwick Library Screening Results: E. cloacae (increase in extracellular AK activity)
[4] = planktonic E. faecium, 384-well, cutoff for positive-scoring molecules 3-fold increase, read-out: AK-based Prestwick Library Screening Results: E. faecium (increase in extracellular AK activity)
[5] = planktonic A. baumannii, 384-well, cutoff for positive-scoring molecules 3-fold increase, read-out: AK-based Prestwick Library Screening Results: A. baumannii (increase in extracellular AK activity)
[6] = planktonic P. aeruginosa, 384-well, cutoff for positive-scoring molecules 3-fold increase, read-out: AK-based Prestwick Library Screening Results: P. aeruginosa (increase in extracellular AK activity)
[7] = planktonic E. coli, 384-well, cutoff for positive-scoring molecules 3-fold increase, read-out: AK-based Prestwick Library Screening Results: E. coli (increase in extracellular AK activity)
[8] = planktonic K. pneumoniae, 384-well, cutoff for positive-scoring molecules 3-fold increase, read-out: AK-based Prestwick Library Screening Results: K. pneumoniae (increase in extracellular AK activity)
[9] = planktonic S. aureus, 384-well, cutoff for positive-scoring molecules 3-fold increase, read-out: AK-based Prestwick Library Screening Results: S. aureus (increase in extracellular AK activity)
[10] = planktonic E. cloacae, positive cutoff 3-fold increase, read-out: AK-based Prestwick library screening result, E. cloacae (fold increase in extracellular AK activity)
[11] = planktonic E. faecium, positive cutoff 3-fold increase, read-out: AK-based Prestwick library screening result, E. faecium (fold increase in extracellular AK activity)
[12] = planktonic A. baumannii, positive cutoff 3-fold increase, read-out: AK-based Prestwick library screening result, A. baumannii (fold increase in extracellular AK activity)
[13] = planktonic P. aeruginosa, positive cutoff 3-fold increase, read-out: AK-based Prestwick library screening result, P. aeruginosa (fold increase in extracellular AK activity)
[14] = planktonic E. coli, positive cutoff 3-fold increase, read-out: AK-based Prestwick library screening result, E. coli (fold increase in extracellular AK activity)
[15] = planktonic K. pneumoniae, positive cutoff 3-fold increase, read-out: AK-based Prestwick library screening result, K. pneumoniae (fold increase in extracellular AK activity)
[16] = planktonic S. aureus, positive cutoff 3-fold increase, read-out: AK-based Prestwick library screening result, S. aureus (fold increase in extracellular AK activity)
[17] = 384-well format, cutoff for positive-scoring molecules 3-fold increase, read-out: AK-based Prestwick Library Screening Results, E. cloacae (increase in extracellular AK activity)
[18] = 384-well format, cutoff for positive-scoring molecules 3-fold increase, read-out: AK-based Prestwick Library Screening Results, E. faecium (increase in extracellular AK activity)
[19] = 384-well format, cutoff for positive-scoring molecules 3-fold increase, read-out: AK-based Prestwick Library Screening Results, A. baumannii (increase in extracellular AK activity)
[20] = 384-well format, cutoff for positive-scoring molecules 3-fold increase, read-out: AK-based Prestwick Library Screening Results, P. aeruginosa (increase in extracellular AK activity)
[21] = 384-well format, cutoff for positive-scoring molecules 3-fold increase, read-out: AK-based Prestwick Library Screening Results, E. coli (increase in extracellular AK activity)
[22] = 384-well format, cutoff for positive-scoring molecules 3-fold increase, read-out: AK-based Prestwick Library Screening Results, K. pneumoniae (increase in extracellular AK activity)
[23] = 384-well format, cutoff for positive-scoring molecules 3-fold increase, read-out: AK-based Prestwick Library Screening Results, S. aureus (increase in extracellular AK activity)
[24] = planktonic, cutoff for positive-scoring molecules 3-fold increase
[25] = planktonic, cutoff for positive 3-fold increase

## CO[C@H]1C[C@H](O[C@H]2[C@H](C)[C@@H](O[C@@H]3O[C@H](C)C[C@H](N(C)C)[C@H]3O)[C@@H](C)C[C@@]3(CO3)C(=O)[C@H](C)[C@@H](O)[C@@H](C)[C@@H](C)OC(=O)[C@@H]2C)O[C@@H](C)[C@@H]1O [Oleandomycin phosphate]
E. cloacae; [3]
  fold induction at 50 µM: 1.6
E. faecium; [4]
  fold induction at 50 µM: 1
[1]; [5]
  fold induction at 50 µM: 1.1
P. aeruginosa; [6]
  fold induction at 50 µM: 1
E. coli; [7]
  fold induction at 50 µM: 1.1
K. pneumoniae; [8]
  fold induction at 50 µM: 1
[2]; [9]
  fold induction at 50 µM: 3.6

## COc1ccc2[nH]c([S+]([O-])Cc3ncc(C)c(OC)c3C)nc2c1 (stereo not drawn) [Omeprazole]
E. cloacae; planktonic E. cloacae, cutoff for positive-scoring molecules 3-fold increase, read-out: AK-based Prestwick Library Screening Results, E. cloacae (increase in extracellular AK activity)
  fold induction at 50 µM: 0.8
E. faecium; planktonic E. faecium, cutoff for positive-scoring molecules 3-fold increase, read-out: AK-based Prestwick Library Screening Results, E. faecium (increase in extracellular AK activity)
  fold induction at 50 µM: 0.8
[1]; planktonic A. baumannii, cutoff for positive-scoring molecules 3-fold increase, read-out: AK-based Prestwick Library Screening Results, A. baumannii (increase in extracellular AK activity)
  fold induction at 50 µM: 0.8
P. aeruginosa; planktonic P. aeruginosa, cutoff for positive-scoring molecules 3-fold increase, read-out: AK-based Prestwick Library Screening Results, P. aeruginosa (increase in extracellular AK activity)
  fold induction at 50 µM: 0.6
E. coli; planktonic E. coli, cutoff for positive-scoring molecules 3-fold increase, read-out: AK-based Prestwick Library Screening Results, E. coli (increase in extracellular AK activity)
  fold induction at 50 µM: 0.7
K. pneumoniae; planktonic K. pneumoniae, cutoff for positive-scoring molecules 3-fold increase, read-out: AK-based Prestwick Library Screening Results, K. pneumoniae (increase in extracellular AK activity)
  fold induction at 50 µM: 0.6
[2]; planktonic S. aureus, cutoff for positive-scoring molecules 3-fold increase, read-out: AK-based Prestwick Library Screening Results, S. aureus (increase in extracellular AK activity)
  fold induction at 50 µM: 0.2

## Cc1nccn1CC1CCc2c(c3ccccc3n2C)C1=O (stereo not drawn) [Ondansetron Hydrochloride]
E. cloacae; [10]
  fold induction at 50 µM: 0.8
E. faecium; [11]
  fold induction at 50 µM: 1.1
[1]; [12]
  fold induction at 50 µM: 0.7
P. aeruginosa; [13]
  fold induction at 50 µM: 0.7
E. coli; [14]
  fold induction at 50 µM: 0.7
K. pneumoniae; [15]
  fold induction at 50 µM: 0.6
[2]; [16]
  fold induction at 50 µM: 0.6

## Cc1ncc([N+](=O)[O-])n1CC(O)CCl (stereo not drawn) [Ornidazole]
E. cloacae; [17]
  fold induction at 50 µM: 0.6
E. faecium; [18]
  fold induction at 50 µM: 0.9
[1]; [19]
  fold induction at 50 µM: 0.6
P. aeruginosa; [20]
  fold induction at 50 µM: 0.6
E. coli; [21]
  fold induction at 50 µM: 0.6
K. pneumoniae; [22]
  fold induction at 50 µM: 0.5
[2]; [23]
  fold induction at 50 µM: 0.5

## CCN(CC)CCc1nc(-c2ccccc2)no1.O=C(O)CC(O)(CC(=O)O)C(=O)O [Oxalamine citrate salt]
E. cloacae; [24]
  AK-based Prestwick Library Screening Results, E. cloacae (fold increase in extracellular AK activity): 1.2
E. faecium; [24]
  AK-based Prestwick Library Screening Results, E. faecium (fold increase in extracellular AK activity): 0.8
[1]; [24]
  AK-based Prestwick Library Screening Results, A. baumannii (fold increase in extracellular AK activity): 0.8
P. aeruginosa; [24]
  AK-based Prestwick Library Screening Results, P. aeruginosa (fold increase in extracellular AK activity): 0.9
E. coli; [24]
  AK-based Prestwick Library Screening Results, E. coli (fold increase in extracellular AK activity): 0.9
K. pneumoniae; [24]
  AK-based Prestwick Library Screening Results, K. pneumoniae (fold increase in extracellular AK activity): 0.7
[2]; [24]
  AK-based Prestwick Library Screening Results, S. aureus (fold increase in extracellular AK activity): 0.8

## CN1CCCN=C1/C=C/c1cccc(O)c1.O=C(O)c1cc2ccccc2c(Cc2c(O)c(C(=O)O)cc3ccccc23)c1O [Oxantel pamoate]
E. cloacae; [25]
  AK-based Prestwick Library Screening Results, E. cloacae (fold increase in extracellular AK activity): 1.8
E. faecium; [25]
  AK-based Prestwick Library Screening Results, E. faecium (fold increase in extracellular AK activity): 1.0
[1]; [25]
  AK-based Prestwick Library Screening Results, A. baumannii (fold increase in extracellular AK activity): 1.1
P. aeruginosa; [25]
  AK-based Prestwick Library Screening Results, P. aeruginosa (fold increase in extracellular AK activity): 1.0
E. coli; [25]
  AK-based Prestwick Library Screening Results, E. coli (fold increase in extracellular AK activity): 1.1
K. pneumoniae; [25]
  AK-based Prestwick Library Screening Results, K. pneumoniae (fold increase in extracellular AK activity): 1.0
[2]; [25]
  AK-based Prestwick Library Screening Results, S. aureus (fold increase in extracellular AK activity): 1.3

## O=C(O)CCc1nc(-c2ccccc2)c(-c2ccccc2)o1 [Oxaprozin]
E. cloacae; [10]
  fold induction at 50 µM: 0.9
E. faecium; [11]
  fold induction at 50 µM: 1.1
[1]; [12]
  fold induction at 50 µM: 0.7
P. aeruginosa; [13]
  fold induction at 50 µM: 0.7
E. coli; [14]
  fold induction at 50 µM: 0.6
K. pneumoniae; [15]
  fold induction at 50 µM: 0.6
[2]; [16]
  fold induction at 50 µM: 0.5

## CN(C(=O)CN(CCO)CC(=O)N(C)C(C)(C)Cc1ccccc1)C(C)(C)Cc1ccccc1 [Oxethazaine]
E. cloacae; [3]
  fold induction at 50 µM: 1.5
E. faecium; [4]
  fold induction at 50 µM: 1
[1]; [5]
  fold induction at 50 µM: 4.2
P. aeruginosa; [6]
  fold induction at 50 µM: 1
E. coli; [7]
  fold induction at 50 µM: 1.4
K. pneumoniae; [8]
  fold induction at 50 µM: 1.5
[2]; [9]
  fold induction at 50 µM: 1

## CCn1cc(C(=O)O)c(=O)c2cc3c(cc21)OCO3 [Oxolinic acid]
E. cloacae; [17]
  fold induction at 50 µM: 4.3
E. faecium; [18]
  fold induction at 50 µM: 1.1
[1]; [19]
  fold induction at 50 µM: 2.3
P. aeruginosa; [20]
  fold induction at 50 µM: 1
E. coli; [21]
  fold induction at 50 µM: 13.1
K. pneumoniae; [22]
  fold induction at 50 µM: 1.6
[2]; [23]
  fold induction at 50 µM: 1

## C=CCOc1ccccc1OCC(O)CNC(C)C (stereo not drawn) [Oxprenolol hydrochloride]
E. cloacae; [10]
  fold induction at 50 µM: 0.9
E. faecium; [11]
  fold induction at 50 µM: 0.9
[1]; [12]
  fold induction at 50 µM: 0.6
P. aeruginosa; [13]
  fold induction at 50 µM: 0.6
E. coli; [14]
  fold induction at 50 µM: 0.7
K. pneumoniae; [15]
  fold induction at 50 µM: 0.6
[2]; [16]
  fold induction at 50 µM: 0.6

## COc1ccc(C(=O)c2ccccc2)c(O)c1 [Oxybenzone]
E. cloacae; planktonic, cutoff for positive-scoring molecules 3-fold increase, read-out: AK-based Prestwick Library Screening Results, E. cloacae (fold increase in extracellular AK activity)
  fold induction at 50 µM: 0.6
E. faecium; planktonic, cutoff for positive-scoring molecules 3-fold increase, read-out: AK-based Prestwick Library Screening Results, E. faecium (fold increase in extracellular AK activity)
  fold induction at 50 µM: 0.7
[1]; planktonic, cutoff for positive-scoring molecules 3-fold increase, read-out: AK-based Prestwick Library Screening Results, A. baumannii (fold increase in extracellular AK activity)
  fold induction at 50 µM: 0.4
P. aeruginosa; planktonic, cutoff for positive-scoring molecules 3-fold increase, read-out: AK-based Prestwick Library Screening Results, P. aeruginosa (fold increase in extracellular AK activity)
  fold induction at 50 µM: 0.5
E. coli; planktonic, cutoff for positive-scoring molecules 3-fold increase, read-out: AK-based Prestwick Library Screening Results, E. coli (fold increase in extracellular AK activity)
  fold induction at 50 µM: 0.5
K. pneumoniae; planktonic, cutoff for positive-scoring molecules 3-fold increase, read-out: AK-based Prestwick Library Screening Results, K. pneumoniae (fold increase in extracellular AK activity)
  fold induction at 50 µM: 0.4
[2]; planktonic, cutoff for positive-scoring molecules 3-fold increase, read-out: AK-based Prestwick Library Screening Results, S. aureus (fold increase in extracellular AK activity)
  fold induction at 50 µM: 0.4

## CCN(CC)CC#CCOC(=O)C(O)(c1ccccc1)C1CCCCC1 (stereo not drawn) [Oxybutynin chloride]
E. cloacae; [3]
  fold induction at 50 µM: 1.6
E. faecium; [4]
  fold induction at 50 µM: 1.1
[1]; [5]
  fold induction at 50 µM: 1.1
P. aeruginosa; [6]
  fold induction at 50 µM: 1
E. coli; [7]
  fold induction at 50 µM: 1.4
K. pneumoniae; [8]
  fold induction at 50 µM: 0.9
[2]; [9]
  fold induction at 50 µM: 1.2
